This is an account of results in US6596726B1, “Tricyclic compounds capable of inhibiting tyrosine kinases of the epidermal growth factor receptor family” (Warner Lambert Company, priority 1994, dated 2003).

SMILES strings stand for the structures.

Assay [1] relates to SK-BR-3 human breast carcinoma overexpressing erbB-2 and erbB-3. Put plainly: Growth inhibition assay (antiproliferative), SK-BR-3. It counts as cell-based. Particulars: 72 h, SK-BR-3 cells, 3 days.
Assay [2] deals with erbB-2, 3, 4 autophosphorylation in SK-BR-3 breast tumor cells. Put plainly: Inhibition of conditioned media-induced autophosphorylation in SK-BR-3 breast tumor cells. Particulars: SK-BR-3 cells, read-out: SKBR-3 IC50. It counts as cell-based, human. How it is done:
Cells were grown to 100% confluency in 100 mm Petrie dishes (Corning). After the cells were treated for 5 minutes with either EGF (epidermal growth factor), PDGF, or bFGF (basic fibroblast growth factor) (20 ng/ml) or 1 ml of conditioned media from MDA-MB-231 cells, the media was removed and the monolayer scraped into 1 ml of ice cold lysis buffer (50 mM Hepes, pH 7.5, 150 mM NaCl, 10% glycerol, 1% triton X-100, 1 mM EDTA, 1 mM EGTA, 10 mM sodium pyrophosphate, 30 mM p-nitrophenyl phosphate, 1 mM orthovanadate, 50 mM sodium fluoride, 1 mM phenylmethylsulfonylfluoride, 10 μg/ml of aprotinin, and 10 μg/ml of leupeptin). The lysate was transferred to a microfuge tube (small centrifuge that holds 1-2 ml plastic centrifuge tubes), allowed to sit on ice 15 minutes and centrifuged 5 minutes at 10,000×g. The supernatant was transferred to a clean microfuge tube and 5 μg of antibody was added to designated samples. The tubes were rotated for 2 hours at 4° C. after which 25 μl of protein A sepharose was added and then rotation continued for at least 2 more hours. The protein A separose was washed 5 times with 50 mM Hepes, pH 7.5, 150 mM NaCl, 10% glycerol and 0.02% sodium azide. The precipitates were resuspended with 30 μl of Laemlli buffer (Laemmli, NATURE, […], pp. 680-685, 1970), heated to 100° C. for 5 minutes and centrifuged to obtain the supernatant. Whole cell extracts were made by scraping cells grown in the wells of 6 well plates into 0.2 ml of boiling Laemmli buffer. The extract were transferred to a microfuge tube and heated to 100° C. for 5 minutes. The entire supernatant from the immunoprecipitation or 35 μl of the whole cell extract was loaded onto a polyacrylamide gel (4-20%) and electrophoresis carried out by the method of Laemlli (Laemmli, 1970). Proteins in the gel were electrophoretically transferred to nitrocellulose and the membrane was washed once in 10 mM Tris buffer, pH 7.2, 150 mM NaCl, 0.01% Azide (TNA) and blocked overnight in TNA containing 5% bovine serum albumin and 1% ovalbumin (blocking buffer). The membrane was blotted for 2 hours with the primary antibody (1 μg/ml in blocking buffer) and then washed 2 times sequentially in TNA, TNA containing 0.05% Tween-20 and 0.05% Nonidet P-40 (commercially available detergent) and TNA. The membranes were then incubated for 2 hours in blocking buffer containing 0.1 μCi/ml of [^125I] protein A and then washed again as above. After the blots were dry they were loaded into a film cassette and exposed to X-AR X-ray film for 1-7 days. Protein A is a bacterial protein that specifically bonds certain IgG subtypes and is useful in binding to and isolating antibody-antigen complexes.
Inhibition of EGF-Induced Autophosphorylation in A431 Epidermoid Carcinoma Cells and Conditioned Media-Induced Autophosphorylation in SK-BR-3 Breast Tumor Cells by Compounds of the Current Invention

The subject of assay [3] is B104-1-1 NIH-3T3 mouse fibroblasts transfected by the neu oncogene. Put plainly: Growth inhibition assay (antiproliferative), B104-1-1. Format: cell-based. The following applies: 72 h, B104-1-1 cells, 3 days. The source says: Antiproliferative Properties of Tyrosine Kinase Inhibitors IC50 (nM)
B104-1-1—NIH-3T3 mouse fibroblasts transfected by the neu oncogene: Stern et al., Science, 234, pp. 321-324 (1987);

In the case of `Brc1cccc(Nc2ncnc3cc4[nH]cnc4cc23)c1` [Example 6, 4-(3-Bromoanilino)imidazolo[4,5-g]quinazoline], the IC50 came out at 200 nM in assay [1], 55 nM in assay [2] and 3.2 µM in assay [3].
With `Nc1ccc2sc3c(Nc4cccc(Br)c4)ncnc3c2c1` [Example 17, 8-Amino-4-(3-bromoanilino)benzo[b]thieno[3,2-d]pyrimidine], the figures for the IC50 in assay [2] and in assay [3] were 23 nM and 2.9 µM, respectively.
